Experimental data from PubChem BioAssay AID1918939 (Molecular Pharmacology Branch, DTP, NCI, 2023).

Tested on: 653999-131-R-J2-PDC complex spheroid viability
Experiment: Anticancer human tumor 653999-131-R-J2-PDC patient-derived lung adenocarcinoma cell line growth inhibition
Conditions: for IC50: curve of first compound; for viability, T/C: stronger effect = lower value
Method in brief: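 Complex spheroids of tumor cells with HUVEC and human MSCs, exposed to iadademstat combined with other agents. Each agent tested in half-log steps from near clinical Cmax (else 10 microM top), DMSO ≤0.25%.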

[1] = second compound 0.1 µM, first compound 0.000316 µM
[2] = second compound 0.1 µM, first compound 0.001 µM
[3] = second compound 0.1 µM, first compound 0.00316 µM
[4] = second compound 0.1 µM, first compound 0.01 µM
[5] = second compound 0.1 µM, first compound 0.0316 µM
[6] = second compound 0.1 µM, first compound 0.1 µM
[7] = second compound 0.316 µM, first compound 0.000316 µM
[8] = second compound 0.316 µM, first compound 0.001 µM
[9] = second compound 0.316 µM, first compound 0.00316 µM
[10] = second compound 0.316 µM, first compound 0.01 µM
[11] = second compound 0.316 µM, first compound 0.0316 µM
[12] = second compound 0.316 µM, first compound 0.1 µM
[13] = second compound 1 µM, first compound 0.000316 µM
[14] = second compound 1 µM, first compound 0.001 µM
[15] = second compound 1 µM, first compound 0.00316 µM
[16] = second compound 1 µM, first compound 0.01 µM
[17] = second compound 1 µM, first compound 0.0316 µM
[18] = second compound 1 µM, first compound 0.1 µM
[19] = second compound 3.16 µM, first compound 0.000316 µM
[20] = second compound 3.16 µM, first compound 0.001 µM
[21] = second compound 3.16 µM, first compound 0.00316 µM
[22] = second compound 3.16 µM, first compound 0.01 µM
[23] = second compound 3.16 µM, first compound 0.0316 µM
[24] = second compound 3.16 µM, first compound 0.1 µM
[25] = second compound 10 µM, first compound 0.000316 µM
[26] = second compound 10 µM, first compound 0.001 µM
[27] = second compound 10 µM, first compound 0.00316 µM
[28] = second compound 10 µM, first compound 0.01 µM
[29] = second compound 10 µM, first compound 0.0316 µM
[30] = second compound 10 µM, first compound 0.1 µM
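Also: spheroids exposed to agents for seven days before readout.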

Row | Compound | IC50 (second compound 0.1 µM) | IC50 (second compound 0.316 µM) | IC50 (second compound 1 µM) | IC50 (second compound 3.16 µM) | IC50 (second compound 10 µM) | viability, T/C [3] | viability, T/C [4] | viability, T/C [5] | viability, T/C [6] | viability, T/C [9] | viability, T/C [10] | viability, T/C [11] | viability, T/C [12] | viability, T/C [15] | viability, T/C [16] | viability, T/C [17] | viability, T/C [18] | viability, T/C [21] | viability, T/C [22] | viability, T/C [23] | other results
1 | CC(C)CC(NC(=O)C(Cc1ccccc1)NC(=O)c1cnccn1)B(O)O (stereo not given) + NC1CC1c1ccc(-c2cccc(O)c2)cc1 | 0.832 nM | 0.904 nM | 0.786 nM | 0.979 nM | 0.589 nM | 12.9% | 4.58% | 1.38% | 2.17% | 11.4% | 3.25% | 1.54% | 1.44% | 11.6% | 3.96% | 0.99% | 4.31% | 16% | 3.4% | 1.41% | viability, T/C [1]: 122%; viability, T/C [2]: 35.4%; viability, T/C [7]: 110%; viability, T/C [8]: 44.2%; viability, T/C [13]: 109%; viability, T/C [14]: 34%; viability, T/C [19]: 103%; viability, T/C [20]: 48.9%; viability, T/C [24]: 2.37%; viability, T/C [25]: 74.4%; viability, T/C [26]: 29.1%; viability, T/C [27]: 9.61%; viability, T/C [28]: 3.68%; viability, T/C [29]: 1.33%; viability, T/C [30]: 2.12%
2 | CC(C)CC(NC(=O)CNC(=O)c1cc(Cl)ccc1Cl)B1OC(=O)CC(CC(=O)O)(C(=O)O)O1 (stereo not given) + NC1CC1c1ccc(-c2cccc(O)c2)cc1 | 21.1 nM | 15.1 nM | 16.5 nM | 14.7 nM | 9.33 nM | 109% | 73% | 38.5% | 19.6% | 117% | 62.3% | 38.2% | 17.5% | 123% | 68.2% | 33% | 20.4% | 116% | 61.7% | 38.7% | viability, T/C [1]: 88.6%; viability, T/C [2]: 103%; viability, T/C [7]: 97.4%; viability, T/C [8]: 91.7%; viability, T/C [13]: 77.9%; viability, T/C [14]: 87%; viability, T/C [19]: 92.8%; viability, T/C [20]: 90.8%; viability, T/C [24]: 14.7%; viability, T/C [25]: 80%; viability, T/C [26]: 84.6%; viability, T/C [27]: 113%; viability, T/C [28]: 47.3%; viability, T/C [29]: 23.9%; viability, T/C [30]: 9.99%
3 | COc1cc(Nc2ncc3c(n2)-c2ccc(Cl)cc2C(c2c(F)cccc2OC)=NC3)ccc1C(=O)O + NC1CC1c1ccc(-c2cccc(O)c2)cc1 | > 1000 nM | > 1000 nM | > 1000 nM | 819 nM | > 1000 nM | 66.8% | 75.8% | 73.6% | 62.1% | 63.6% | 70.6% | 65.8% | 57.2% | 63.5% | 70.8% | 61.8% | 59.8% | 62.1% | 58.9% | 58% | viability, T/C (second compound 0.1 µM, first compound 0.316 µM): 66.8%; viability, T/C (second compound 0.1 µM, first compound 1 µM): 64.8%; viability, T/C (second compound 0.316 µM, first compound 0.316 µM): 57.3%; viability, T/C (second compound 0.316 µM, first compound 1 µM): 53.9%; viability, T/C (second compound 1 µM, first compound 0.316 µM): 57.3%; viability, T/C (second compound 1 µM, first compound 1 µM): 53.7%; viability, T/C [24]: 54.7%; viability, T/C (second compound 3.16 µM, first compound 0.316 µM): 51.7%; viability, T/C (second compound 3.16 µM, first compound 1 µM): 49.6%; viability, T/C [27]: 60.2%; viability, T/C [28]: 66.3%; viability, T/C [29]: 65.1%; viability, T/C [30]: 55.5%; viability, T/C (second compound 10 µM, first compound 0.316 µM): 56.8%; viability, T/C (second compound 10 µM, first compound 1 µM): 53.5%
